Results reported in ChEMBL document CHEMBL3044789, “Comparing weed and crop seedling response to pre-emergence pendimethalin application in Corchorus olitorius and Abelmoschus esculentus” (Crop Prot, 2006).

How the values were obtained:
[1] = tested on: Abelmoschus esculentus; experiment: Phytotoxicity in Abelmoschus esculentus assessed as shoot length at 1.32 kg a.i/ha treated to soil after 7 weeks (reference value: 8.5 +/- 0.34 mm); format: organism-based; conditions: in vivo, other, 1176 h
[2] = tested on: Cyperus rotundus; experiment: Herbicidal activity against Cyperus rotundus in Abelmoschus esculentus plots assessed as weed recovery at 0.66 kg a.i/ha after 2 weeks (reference value: 60.1 +/- 0.46 %); format: functional
[3] = tested on: Talinum fruticosum; experiment: Herbicidal activity against Talinum fruticosum in Corchorus olitorius plots assessed as minor weed growth at 0.99 kg a.i/ha after 2 weeks; format: functional
[4] = tested on: Synedrella nodiflora; experiment: Herbicidal activity against Synedrella nodiflora in Abelmoschus esculentus plots assessed as weed cover at 0.33 kg a.i/ha after 7 weeks (reference value: 14.7 +/- 0.46 %); format: functional
[5] = tested on: Euphorbia heterophylla; experiment: Herbicidal activity against Euphorbia heterophylla in Abelmoschus esculentus plots assessed as major weed growth at 1.32 kg a.i/ha after 2 weeks; format: functional
[6] = tested on: Corchorus olitorius; experiment: Phytotoxicity in Corchorus olitorius assessed as root length at 0.66 kg a.i/ha applied as solution after 7 weeks (reference value: 14.3 +/- 1.06 mm); format: organism-based; conditions: in vivo, other, 1176 h
[7] = tested on: Euphorbia heterophylla; experiment: Herbicidal activity against Euphorbia heterophylla in Corchorus olitorius plots assessed as weed recovery at 0.99 kg a.i/ha after 2 weeks (reference value: 78.3 +/- 0.74 %); format: functional
[8] = tested on: Chromolaena odorata; experiment: Herbicidal activity against Chromolaena odorata in Corchorus olitorius plots assessed as weed cover at 0.33 kg a.i/ha after 4 weeks (reference value: 20.1+/- 0.57 %); format: functional
[9] = tested on: Ageratum conyzoides; experiment: Herbicidal activity against Ageratum conyzoides in Abelmoschus esculentus plots assessed as minor weed growth at 1.32 kg a.i/ha after 2 weeks; format: functional
[10] = tested on: Corchorus olitorius; experiment: Phytotoxicity in Corchorus olitorius assessed as shoot length at 0.66 kg a.i/ha applied as solution after 7 weeks (reference value: 22.9 +/- 0.8 mm); format: organism-based; conditions: in vivo, other, 1176 h
[11] = tested on: Euphorbia heterophylla; experiment: Herbicidal activity against Euphorbia heterophylla in Abelmoschus esculentus plots assessed as weed cover at 0.99 kg a.i/ha after 2 weeks (reference value: 63.5 +/- 0.29 %); format: functional
[12] = tested on: Corchorus olitorius; experiment: Phytotoxicity in Corchorus olitorius assessed as shoot length at 1.32 kg a.i/ha treated to soil after 7 weeks (reference value: 23.7 +/- 0.10 mm); format: organism-based; conditions: in vivo, other, 1176 h
[13] = tested on: Euphorbia heterophylla; experiment: Herbicidal activity against Euphorbia heterophylla in Corchorus olitorius plots assessed as weed recovery at 0.33 kg a.i/ha after 2 weeks (reference value: 78.3 +/- 0.74 %); format: functional
[14] = tested on: Euphorbia heterophylla; experiment: Herbicidal activity against Euphorbia heterophylla in Corchorus olitorius plots assessed as weed cover at 0.33 kg a.i/ha after 2 weeks (reference value: 81.7 +/- 0.43 %); format: functional
[15] = tested on: Synedrella nodiflora; experiment: Herbicidal activity against Synedrella nodiflora in Abelmoschus esculentus plots assessed as weed cover at 0.66 kg a.i/ha after 2 weeks (reference value: 63.5 +/- 0.29 %); format: functional
[16] = tested on: Rottboellia cochinchinensis; experiment: Herbicidal activity against Rottboellia cochinchinensis in Corchorus olitorius plots assessed as major weed growth at 0.33 kg a.i/ha after 2 weeks; format: functional
[17] = tested on: Euphorbia heterophylla; experiment: Herbicidal activity against Euphorbia heterophylla in Corchorus olitorius plots assessed as major weed growth at 0.66 kg a.i/ha after 2 weeks; format: functional
[18] = tested on: Rottboellia cochinchinensis; experiment: Herbicidal activity against Rottboellia cochinchinensis in Abelmoschus esculentus plots assessed as weed recovery at 0.33 kg a.i/ha after 2 weeks (reference value: 60.1 +/- 0.46 %); format: functional
[19] = tested on: Calopogonium mucunoides; experiment: Herbicidal activity against Calopogonium mucunoides in Corchorus olitorius plots assessed as weed cover at 0.66 kg a.i/ha after 7 weeks (reference value: 1.7 +/- 0.56 %); format: functional
[20] = tested on: Chromolaena odorata; experiment: Herbicidal activity against Chromolaena odorata in Corchorus olitorius plots assessed as minor weed growth at 0.99 kg a.i/ha after 2 weeks; format: functional
[21] = tested on: Calopogonium mucunoides; experiment: Herbicidal activity against Calopogonium mucunoides in Abelmoschus esculentus plots assessed as weed cover at 0.33 kg a.i/ha after 7 weeks (reference value: 14.7 +/- 0.46 %); format: functional
[22] = tested on: Calopogonium mucunoides; experiment: Herbicidal activity against Calopogonium mucunoides in Abelmoschus esculentus plots assessed as weed cover at 0.66 kg a.i/ha after 7 weeks (reference value: 14.7 +/- 0.46 %); format: functional
[23] = tested on: Corchorus olitorius; experiment: Phytotoxicity in Corchorus olitorius assessed as seedling injury at 0.66 kg a.i/ha applied as solution after 7 weeks relative to control; format: organism-based; conditions: in vivo, other, 1176 h
[24] = tested on: Abelmoschus esculentus; experiment: Phytotoxicity in Abelmoschus esculentus assessed as root length at 1.32 kg a.i/ha applied as solution after 7 weeks (reference value: 23 +/- 0.34 mm); format: organism-based; conditions: in vivo, other, 1176 h
[25] = tested on: Commelina diffusa; experiment: Herbicidal activity against Commelina diffusa in Corchorus olitorius plots assessed as weed cover at 0.66 kg a.i/ha after 4 weeks (reference value: 20.1+/- 0.57 %); format: functional
[26] = tested on: Calopogonium mucunoides; experiment: Herbicidal activity against Calopogonium mucunoides in Corchorus olitorius plots assessed as weed recovery at 0.66 kg a.i/ha after 2 weeks (reference value: 78.3 +/- 0.74 %); format: functional
[27] = tested on: Calopogonium mucunoides; experiment: Herbicidal activity against Calopogonium mucunoides in Corchorus olitorius plots assessed as major weed growth at 0.33 kg a.i/ha after 2 weeks; format: functional
[28] = tested on: Synedrella nodiflora; experiment: Herbicidal activity against Synedrella nodiflora in Corchorus olitorius plots assessed as weed cover at 0.99 kg a.i/ha after 4 weeks (reference value: 20.1+/- 0.57 %); format: functional
[29] = tested on: Calopogonium mucunoides; experiment: Herbicidal activity against Calopogonium mucunoides in Abelmoschus esculentus plots assessed as weed recovery at 0.66 kg a.i/ha after 2 weeks (reference value: 60.1 +/- 0.46 %); format: functional
[30] = tested on: Talinum fruticosum; experiment: Herbicidal activity against Talinum fruticosum in Abelmoschus esculentus plots assessed as weed cover at 0.99 kg a.i/ha after 4 weeks (reference value: 22.6 +/- 0.49 %); format: functional
[31] = tested on: Commelina diffusa; experiment: Herbicidal activity against Commelina diffusa in Abelmoschus esculentus plots assessed as weed recovery at 0.66 kg a.i/ha after 2 weeks (reference value: 60.1 +/- 0.46 %); format: functional
[32] = tested on: Commelina diffusa; experiment: Herbicidal activity against Commelina diffusa in Corchorus olitorius plots assessed as weed recovery at 0.66 kg a.i/ha after 2 weeks (reference value: 78.3 +/- 0.74 %); format: functional
[33] = tested on: Chromolaena odorata; experiment: Herbicidal activity against Chromolaena odorata in Corchorus olitorius plots assessed as weed cover at 1.32 kg a.i/ha after 2 weeks (reference value: 81.7 +/- 0.43 %); format: functional
[34] = tested on: Commelina diffusa; experiment: Herbicidal activity against Commelina diffusa in Corchorus olitorius plots assessed as weed cover at 0.66 kg a.i/ha after 2 weeks (reference value: 81.7 +/- 0.43 %); format: functional
[35] = tested on: Commelina diffusa; experiment: Herbicidal activity against Commelina diffusa in Abelmoschus esculentus plots assessed as weed cover at 0.66 kg a.i/ha after 7 weeks (reference value: 14.7 +/- 0.46 %); format: functional
[36] = tested on: Euphorbia heterophylla; experiment: Herbicidal activity against Euphorbia heterophylla in Corchorus olitorius plots assessed as weed cover at 0.99 kg a.i/ha after 7 weeks (reference value: 1.7 +/- 0.56 %); format: functional
[37] = tested on: Chromolaena odorata; experiment: Herbicidal activity against Chromolaena odorata in Corchorus olitorius plots assessed as minor weed growth at 1.32 kg a.i/ha after 2 weeks; format: functional

## CCC(CC)Nc1c([N+](=O)[O-])cc(C)c(C)c1[N+](=O)[O-] [PENDIMETHALIN]
[1]
  Activity: 3.6 mm
[2]
  Activity: 47.9%
[3]
  Activity: 1 /m2
[4]
  Activity: 90%
[5]
  Activity: 31 /m2
[6]
  Activity: 2.6 mm
[7]
  Activity: 21.7%
[8]
  Activity: 73.3%
[9]
  Activity: 1 /m2
[10]
  Activity: 6 mm
[11]
  Activity: 47.9%
[12]
  Activity: 19.4 mm
[13]
  Activity: 31.7%
[14]
  Activity: 63.3%
[15]
  Activity: 50.8%
[16]
  Activity: 31 /m2
[17]
  Activity: 31 /m2
[18]
  Activity: 39.2%
[19]
  Activity: 100%
[20]
  Activity: 1 /m2
[21]
  Activity: 90%
[22]
  Activity: 90%
[23]
  Activity: 31.7%
[24]
  Activity: 11.5 mm
[25]
  Activity: 63.3%
[26]
  Activity: 33.3%
[27]
  Activity: 31 /m2
[28]
  Activity: 48.3%
[29]
  Activity: 47.9%
[30]
  Activity: 39.2%
[31]
  Activity: 47.9%
[32]
  Activity: 33.3%
[33]
  Activity: 41.7%
[34]
  Activity: 51.7%
[35]
  Activity: 90%
[36]
  Activity: 95%
[37]
  Activity: 1 /m2
